Assay results taken from patent US20210322622A1, “COMPOSITIONS AND METHODS FOR PREPARATION OF COMPOSITE POLYMER FILMS ON NON-CONDUCTING SUBSTRATES, INCLUDING BANDAGES, AND THEIR USE FOR TREATING WOUNDS” (The Johns Hopkins University, priority 2018, published 2021).

Key:
[1] = test system: S. aureus bioluminescent strain Xen36; test: Mouse model of prosthetic joint infection (PJI): in vivo bioluminescence imaging and CFU; set-up: species or system mice; settings: intravenous prophylaxis 110 mg/kg at −1 and 16 hours
Text: A previously established mouse model of a prosthetic joint infection (PJI) (Pribaz et al., 2012) was used to evaluate the efficiencies of the composite coatings in providing sustained in situ release and in vivo antimicrobial activity (FIG. 5A, FIG. 5B, FIG. 5C, FIG. 5D, FIG. 5E, FIG. 5F, FIG. 5G, FIG. 5H, FIG. 5I, FIG. 5J, FIG. 5K, and FIG. 5L). A medical-grade titanium K-wire (0.5 mm in diameter, 9 mm in length) coated with PLGA/PCL fiber coating ± antibiotics was surgically placed into the right distal femur of mice. Briefly, a medial parapatellar arthrotomy on the right knee was performed with lateral displacement of the quadriceps-patellar complex. […]
Noninvasive and longitudinal measurements of the bacterial burden were performed using in vivo bioluminescence imaging of the bioluminescent signals from live and actively metabolizing Xen36 bacteria at the site of infection in the post-operative knee joints of anesthetized mice over a 2-week course of infection using the IVIS Lumina III in vivo imaging system (PerkinElmer) on days 0, 1, 3, 5, 7, and 14. Data are presented on a color scale overlaid on a grayscale photograph of mice and quantified as maximum radiance (photons/second/cm^2/steradian) within a circular region of interest (1×10^3 pixels) using Living Image software. […]

S. aureus = test: In vitro zone of inhibition assay of coated K-wires; type: cell-based, Staphylococcus aureus; settings: 6 weeks room temperature, 6 weeks −20° C., 8 months
Text: A zone of inhibition assay was used as an additional assay to evaluate the in vitro release of antibiotic(s) from the composite coating. Tryptic soy agar bacterial plates were inoculated with S. aureus bacteria cells to yield a bacterial lawn after overnight culture. After bacterial inoculation and before culturing the plates, two identical titanium K-wires loaded with either 10 w/w % Lin, 10 w/w % Van, or 10 w/w % Dap alone, or in combination with Rif were placed in two separate areas on the plate. After culturing the plates at 37° C. for 24 hours, the antimicrobial activity of the eluded antibiotic(s) into the agar was measured as a zone of inhibition (diameter [mm]) of the bacterial growth around the K-wire.
Long-term efficacy of the antimicrobial activity was tested by storing electrospun pins at room temperature for 6 weeks, −20° C. for 6 weeks, and −80° C. for 8 months. Coated pins were protected from light during storage. These pins were then used in the same zone of inhibition assay as described hereinabove. These antimicrobial results were further confirmed with a two-week in vitro release study to determine release kinetics after storage.
Tryptic soy agar (TSA) bacterial plates were inoculated with S. aureus to yield a bacterial lawn after overnight culture. Before culturing the plates, two titanium K-wires each loaded with the same combination of antibiotics from each set were placed in two separate areas on the plate. After culturing at 37° C. for 24 hours, the zone of inhibition (ZOI) (diameter/mm) of bacterial growth were measured.

[2] = In vitro release of antibiotics from PLGA/PCL composite coatings on titanium K-wires (HPLC); type: physicochemical; settings: stored coated pins, two-week in vitro release
Experimental: The release rate of the polymer composite film was measured by HPLC. Drug release studies were conducted using coated pins created with the same loading parameters as those used for later in vivo testing (10% (w/w) drug combinations) electrospun for 60 seconds at injection rates of 0.5 mL/h from each needle. Release rate of antibiotics from the composite polymer coating was characterized by placing coated pins in 200 μL pH 7.4 PBS buffer and incubating at 37° C. in an aluminum film-covered incubator to prevent possible light-induced drug degradation. Release media was changed at fixed time points over a period of two weeks and stored in a −20° C. freezer until analysis. Drug concentrations in release media for each day were determined via reverse-phase HPLC using a C-18 column in an Alliance HPLC system and Waters 2996 PDA detector. The mobile phase was a mixture of acetonitrile and water both mixed with 0.1% TFA acid, which was run at a gradient from (15%/85%) to (40%/60%) for a total runtime of 15 minutes per sample for the elution of Van/Rif and Lin/Rif drug loading groups. Elution of the Dap/Rif loading group was conducted using a mobile phase of (49%/51%) of acetonitrile and water both mixed with 0.1% TFA acid for a total run time of 11 minutes per sample. Concentrations of the drugs were quantified using wavelengths of 343 nm for Rif, 254 nm for Lin, 280 nm for Van and 223 nm for Dap using prepared standard curves for all three drugs. […] Quantification was performed through the derivatization of Gentamicin with ninhydrin at 95° C. for 15 minutes and detection with a Biotek Synergy2 plate reader.
Long-term efficacy of the antimicrobial activity was tested by storing electrospun pins at room temperature for 6 weeks, −20° C. for 6 weeks, and −80° C. for 8 months. Coated pins were protected from light during storage. These pins were then used in the same zone of inhibition assay as described hereinabove.
Drug release studies were conducted using coated pins created with the same loading parameters as detailed above. Release kinetics of antibiotics from the composite coating were characterized by placing coated pins in 200 μL of phosphate buffer saline (PBS, pH 7.4) at 37° C. Release media was changed daily over a period of two weeks and stored at −20° C. until analysis. Drug concentrations in release media were measured on days 1, 2, 3, 5, 7, 10 and 14 using a Waters Alliance 2690 HPLC system (Waters Corporation, Milford, Mass.) equipped with an Accucore RP-MS C18 column (100 mm×2.1 mm; Thermo Fisher Scientific) and a Waters 2996 PDA detector. The elution was carried out with a mobile phase of water and acetonitrile both mixed with 0.1% TFA at a flow rate of 1 mL/min at ambient temperature using a linear gradient elution program of 85% water to […] in 15 minutes. Concentrations of the drugs were quantified using wavelengths for Van (280 nm), Lin (254 nm), Dap (224 nm) and Rif (263 nm).

S. aureus strain Xen36 = test: MIC of XEN36 for each antibiotic; type: cell-based, Staphylococcus aureus; settings: Staphylococcus aureus, XEN36, read-out: MIC of XEN36
Experimental: S. aureus strain Xen36 (PerkinElmer, Waltham, Mass.) previously derived from the clinical bacteremia isolate ATCC 49525 (Wright) was used in all experiments. (Francis et al., 2000). […] (Francis et al., 2000). Xen36 was prepared for inoculation as previously described. (Niska et al., 2013; Pribaz et al. (2012)).

**Q.** What does the source list for `CN[C@H](CC(C)C)C(=O)N[C@H]1C(=O)N[C@@H](CC(N)=O)C(=O)N[C@H]2C(=O)N[C@H]3C(=O)N[C@H](C(=O)N[C@H](C(=O)O)c4cc(O)cc(O)c4-c4cc3ccc4O)[C@H](O)c3ccc(c(Cl)c3)Oc3cc2cc(c3O[C@@H]2O[C@H](CO)[C@@H](O)[C@H](O)[C@H]2O[C@H]2C[C@](C)(N)[C@H](O)[C@H](C)O2)Oc2ccc(cc2Cl)[C@H]1O` [Van, vancomycin]?
**A.** BLI signals [1]: decreased BLI signals; CFU from bone/joint tissue and implants [1]: the infection was not cleared as CFU were readily detected; antimicrobial activity (zone of inhibition) after storage versus freshly prepared coatings (S. aureus): no significant loss of antimicrobial activity; release kinetics after storage [2]: no difference in the release kinetics; MIC (S. aureus strain Xen36): 0.5 µg/mL
